target: human ACC2 (Homo sapiens (Human), UniProt O00763); experiment: ACC2 assay (spectrophotometric 384 well assay, NADH-linked coupled lactate dehydrogenase/pyruvate kinase); type: biochemical; conditions: not given
Experimental: Spectrophotometric 384 Well Assay
Malonyl CoA formation by acetyl CoA carboxylases is stoichometrically linked to the consumption of ATP. ACC2 activity is measured in a NADH-linked kinetic method measuring ADP generated during the ACC reaction using a coupled lactate dehydrogenase/pyruvate kinase reaction.
For biological testing, a human ACC2 construct which lacks the 128 amino acids at the N-terminus for increased solubility (nt 385-6966 in Genbank entry AJ575592) is cloned. The protein is then expressed in insect cells using a baculoviral expression system. Protein purification is performed by anion exchange.
All compounds are dissolved in dimethyl sulfoxide (DMSO) to a concentration of 10 mM.
Assay reactions are then carried out in 384-well plates, with hACC2 in an appropriate dilution and at final assay concentrations (f.c.) of 100 mM Tris (pH 7.5), 10 mM trisodium citrate, 25 mM KHCO3, 10 mM MgCl2, 0.5 mg/ml BSA, 3.75 mM reduced L-glutathione, 15 U/ml lactate dehydrogenase, 0.5 mM phosphoenolpyruvate, 15 U/ml pyruvate kinase, compounds at different concentrations at final DMSO concentrations of 1%.
The enzymatic reaction is then started by addition of a mixture of NADH, acetyl Coenzyme A (both 200 μM f.c.) and ATP (500 uM f.c.). The decrease of the optical density (slope S) is then determined at 25° C. at a wavelength of 340 nm over 15 minutes in a spectrophotometric reader.
Each assay microtiter plate contains wells with vehicle instead of compound as controls for the non-inhibited enzyme (100% CTL; ‘HIGH’) and wells without acetyl-CoA as controls for non-specific NADH degradation (0% CTL; ‘LOW’).
The slope S is used for calculation of % CTL=(S(compound)−S(‘LOW’))/(S(‘HIGH’)—S(‘LOW’))*100. Compounds will give values between 100% CTL (no inhibition) and 0% CTL (complete inhibition).
For IC50 value determination, the sample slope in the presence of the test compound after subtraction of the low controls (S(compound)−S(‘LOW’)) are used.
An IC50 value is derived from the compound slopes at different dosages after subtraction of the low controls (S(compound)−S(‘LOW’)) by non-linear regression curve fitting (equation y=(A+((B−A)/(1+((C/x)^D))))).

Chain of human ACC2 (O00763 129-2458): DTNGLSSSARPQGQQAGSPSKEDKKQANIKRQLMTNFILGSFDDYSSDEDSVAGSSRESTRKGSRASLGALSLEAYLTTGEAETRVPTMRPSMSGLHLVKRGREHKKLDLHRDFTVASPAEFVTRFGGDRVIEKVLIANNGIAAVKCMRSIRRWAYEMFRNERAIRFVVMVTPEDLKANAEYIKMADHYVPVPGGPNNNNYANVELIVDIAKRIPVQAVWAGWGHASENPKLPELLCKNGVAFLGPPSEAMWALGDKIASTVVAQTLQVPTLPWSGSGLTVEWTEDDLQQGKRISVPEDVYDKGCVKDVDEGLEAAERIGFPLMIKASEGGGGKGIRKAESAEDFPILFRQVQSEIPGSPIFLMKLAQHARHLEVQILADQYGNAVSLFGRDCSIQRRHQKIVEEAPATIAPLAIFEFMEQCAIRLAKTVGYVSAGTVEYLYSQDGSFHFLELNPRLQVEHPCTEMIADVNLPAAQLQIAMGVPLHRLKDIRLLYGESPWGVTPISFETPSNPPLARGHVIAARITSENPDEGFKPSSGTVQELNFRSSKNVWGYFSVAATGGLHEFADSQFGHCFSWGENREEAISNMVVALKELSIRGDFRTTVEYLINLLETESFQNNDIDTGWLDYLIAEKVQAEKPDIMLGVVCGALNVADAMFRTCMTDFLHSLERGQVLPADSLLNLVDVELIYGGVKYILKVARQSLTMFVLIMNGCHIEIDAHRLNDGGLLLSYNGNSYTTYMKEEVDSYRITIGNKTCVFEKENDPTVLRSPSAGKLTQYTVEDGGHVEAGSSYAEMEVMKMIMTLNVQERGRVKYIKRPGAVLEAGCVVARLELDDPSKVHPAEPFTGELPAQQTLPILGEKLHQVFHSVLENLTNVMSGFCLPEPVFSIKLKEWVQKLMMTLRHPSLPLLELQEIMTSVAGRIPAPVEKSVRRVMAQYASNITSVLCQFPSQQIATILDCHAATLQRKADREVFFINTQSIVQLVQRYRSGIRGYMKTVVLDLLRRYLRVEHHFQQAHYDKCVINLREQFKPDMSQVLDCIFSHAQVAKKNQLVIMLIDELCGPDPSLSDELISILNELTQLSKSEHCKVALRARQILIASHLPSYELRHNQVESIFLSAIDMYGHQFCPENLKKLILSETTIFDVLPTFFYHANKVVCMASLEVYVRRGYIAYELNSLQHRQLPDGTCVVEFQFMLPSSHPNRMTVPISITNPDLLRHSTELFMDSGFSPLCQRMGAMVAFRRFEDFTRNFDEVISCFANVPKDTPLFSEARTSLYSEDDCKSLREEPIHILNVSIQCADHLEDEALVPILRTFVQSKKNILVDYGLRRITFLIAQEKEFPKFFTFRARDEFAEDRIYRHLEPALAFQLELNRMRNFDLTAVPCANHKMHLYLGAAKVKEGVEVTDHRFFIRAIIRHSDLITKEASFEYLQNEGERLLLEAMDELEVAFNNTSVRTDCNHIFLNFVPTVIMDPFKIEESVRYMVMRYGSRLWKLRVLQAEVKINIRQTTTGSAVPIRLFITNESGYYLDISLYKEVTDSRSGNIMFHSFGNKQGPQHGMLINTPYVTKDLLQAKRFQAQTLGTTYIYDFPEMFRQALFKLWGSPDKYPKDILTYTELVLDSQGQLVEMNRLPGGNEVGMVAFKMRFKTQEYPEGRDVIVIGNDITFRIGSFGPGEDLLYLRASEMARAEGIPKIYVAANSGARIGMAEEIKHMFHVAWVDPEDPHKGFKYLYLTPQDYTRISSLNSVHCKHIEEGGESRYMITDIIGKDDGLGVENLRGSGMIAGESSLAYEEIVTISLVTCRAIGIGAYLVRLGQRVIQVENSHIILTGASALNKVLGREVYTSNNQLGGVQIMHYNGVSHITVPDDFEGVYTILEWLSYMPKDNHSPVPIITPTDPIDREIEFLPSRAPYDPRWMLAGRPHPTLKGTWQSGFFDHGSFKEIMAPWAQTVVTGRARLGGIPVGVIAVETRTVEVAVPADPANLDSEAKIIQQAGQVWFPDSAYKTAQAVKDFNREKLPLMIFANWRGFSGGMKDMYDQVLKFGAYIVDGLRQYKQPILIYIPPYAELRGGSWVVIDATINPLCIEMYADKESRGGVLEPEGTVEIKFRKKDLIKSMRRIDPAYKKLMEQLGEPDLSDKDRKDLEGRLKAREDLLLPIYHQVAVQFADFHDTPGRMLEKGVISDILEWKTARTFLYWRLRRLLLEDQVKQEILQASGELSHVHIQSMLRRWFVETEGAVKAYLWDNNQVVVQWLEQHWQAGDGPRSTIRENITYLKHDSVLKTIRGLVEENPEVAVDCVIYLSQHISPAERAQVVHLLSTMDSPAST

Row | Structure (SMILES) | IC50 [nM]
1 | CC(=O)N[C@@H](C)c1ccc(OC2CN(c3ccc(OCC4CC4)nc3)C2)cc1 [Example 2.1, (S)—N-(1-(4-(1-(6-(Cyclopropylmethoxy)Pyridin-3-yl)azetidin-3-yloxy)phenyl)ethyl)-acetamide] | 880

same assay, conditions: hACC2 construct lacking 128 N-terminal amino acids; 25° C., 340 nm, 15 minutes

Row | Structure (SMILES) | IC50 [nM]
2 | CC(=O)N[C@@H](C)c1ccc(OC2CN(c3ccc(OCC4CC4)cc3)C2)cn1 (stereo in doubt) [Example 14, N-(1-{5-[1-(4-Cyclopropylmethoxy-phenyl)-azetidin-3-yloxy]-pyridin-2-yl}-ethyl)-acetamide] | 2040
3 | CC(=O)NC(C)c1ccc(OC2CN(c3ccc(C(C)(C)C)cc3)C2)cc1 (stereo not drawn) [Example 1.1, N-(1-(4-(1-(4-tert-Butylphenyl)azetidin-3-yloxy)phenyl)ethyl)acetamide] | 180
4 | CC(=O)NC(C)c1ccc(OC2CN(c3ccc4c(c3)OCCO4)C2)cc1 (stereo not drawn) [Example 1.2] | 240
5 | CC(=O)NC(C)c1ccc(OC2CN(c3ccc(OC4CC4)cc3)C2)cc1 (stereo not drawn) [Example 1.3] | 530
6 | CC(=O)NC(C)c1ccc(OC2CN(c3ccc(OC4CCC4)cc3)C2)cc1 (stereo not drawn) [Example 1.4] | 130
7 | CCOc1ccc(N2CC(Oc3ccc(C(C)NC(C)=O)cc3)C2)cc1 (stereo not drawn) [Example 1.5] | 200
8 | CC(=O)NC(C)c1ccc(OC2CN(c3ccc(OC4CCCC4)cc3)C2)cc1 (stereo not drawn) [Example 1.6] | 80
9 | CCNc1ncc(N2CC(Oc3ccc(C(C)NC(C)=O)cc3)C2)cn1 (stereo not drawn) [Example 1.7] | 1250
10 | CC(=O)NC(C)c1ccc(OC2CN(c3ncc(Br)cn3)C2)cc1 (stereo not drawn) [Example 1.8] | 550
11 | CCCOc1ccc(N2CC(Oc3ccc(C(C)NC(C)=O)cc3)C2)cn1 (stereo not drawn) [Example 1.9] | 560
12 | CC(=O)NC(C)c1ccc(OC2CN(c3cnc(OC4CCC4)nc3)C2)cc1 (stereo not drawn) [Example 1.10] | 670
13 | CC(=O)NC(C)Cc1ccc(OC2CN(c3ccc(C(C)(C)C)cc3)C2)cc1 (stereo not drawn) [Example 1.11] | 2210
14 | CCOc1ccc(N2CC(Oc3ccc(CC(C)NC(C)=O)cc3)C2)cc1 (stereo not drawn) [Example 1.12] | 5340
15 | CCCOc1ccc(N2CC(Oc3ccc([C@H](C)NC(C)=O)cc3)C2)cc1 [Example 1.13] | 70
16 | CC(=O)N[C@@H](C)c1ccc(OC2CN(c3ccc(OCC4CC4)cc3)C2)cc1 [Example 1.14] | 70
17 | CC(=O)N[C@@H](C)c1ccc(OC2CN(c3cnc(NC4CCC4)nc3)C2)cc1 [Example 1.15] | 180
18 | CC(=O)N[C@@H](C)c1ccc(OC2CN(c3ccc4c(c3)OCCCO4)C2)cc1 [Example 1.16] | 450
19 | CCOc1ccc(N2CC(Oc3ccc([C@H](C)NC(C)=O)cc3)C2)c(OC)c1 [Example 1.17] | 1890
20 | CC(=O)N[C@@H](C)c1ccc(OC2CN(c3ccc4c(c3)OCC(C)(C)CO4)C2)cc1 [Example 1.18] | 140
21 | CCOc1ccc(N2CC(Oc3ccc([C@H](C)NC(C)=O)cc3)C2)cc1 [Example 1.19] | 90
22 | COc1cc(OC2CCC2)ccc1N1CC(Oc2ccc([C@H](C)NC(C)=O)cc2)C1 [Example 1.20] | 490
23 | CCCOc1ccc(N2CC(Oc3ccc([C@H](C)NC(C)=O)cc3)C2)c(OC)c1 [Example 1.21] | 190

Row | Structure (SMILES) | IC50 [nM]
24 | COc1ccc(N2CC(Oc3ccc([C@H](C)NC(C)=O)cc3)C2)c(C#N)c1 [Example 1.22] | 1180
25 | CC(=O)N[C@@H](C)c1ccc(OC2CN(c3ccc(C(F)(F)F)cc3C#N)C2)cc1 [Example 1.23] | 2810
26 | CC(=O)N[C@@H](C)c1ccc(OC2CN(c3ccc4c(c3)OCCO4)C2)cc1 [Example 1.24] | 120
27 | CCCOc1ccc(N2CC(Oc3ccc([C@H](C)NC(C)=O)cc3)C2)c(C#N)c1 [Example 1.25] | 580
28 | CC(=O)N[C@@H](C)c1ccc(OC2CN(c3ccc4c(c3)OC(F)(F)O4)C2)cc1 [Example 1.26] | 740
29 | CC(=O)N[C@@H](C)c1ccc(OC2CN(c3ccc4oc(C)nc4c3)C2)cc1 [Example 1.27] | 1750
30 | CC(=O)N[C@@H](C)c1ccc(OC2CN(c3ccc4oc(-c5ccccc5)nc4c3)C2)cc1 [Example 1.28] | 1620
31 | CC(=O)N[C@@H](C)c1ccc(OC2CN(c3ccc4c(c3)OCCCC4(C)C)C2)cc1 [Example 1.29] | 190
32 | CCOc1cccc(N2CC(Oc3ccc([C@H](C)NC(C)=O)cc3)C2)c1 [Example 1.30] | 670
33 | CCCOc1ccc(N2CC(Oc3ccc([C@H](C)NC(=O)N(C)C)cc3)C2)cc1 [Example 1.31] | 190
34 | C[C@H](NC(=O)N(C)C)c1ccc(OC2CN(c3ccc(OC4CC4)cc3)C2)cc1 [Example 1.32] | 190
35 | C[C@H](NC(=O)N(C)C)c1ccc(OC2CN(c3ccc(OCC4CC4)cc3)C2)cc1 [Example 1.33] | 200
36 | C[C@H](NC(=O)N(C)C)c1ccc(OC2CN(c3ccc4c(c3)OCCO4)C2)cc1 [Example 1.34] | 340
37 | CCCOc1ccc(N2CC(Oc3ccc([C@H](C)NC(=O)C4CC4)cc3)C2)cc1 [Example 1.35] | 60
38 | COc1cc(OCC2CC2)ccc1N1CC(Oc2ccc([C@H](C)NC(C)=O)cc2)C1 [Example 1.36] | 2830
39 | COc1cc(OC(C)C)ccc1N1CC(Oc2ccc([C@H](C)NC(C)=O)cc2)C1 [Example 1.37] | 2270
40 | CCC(C)Oc1ccc(N2CC(Oc3ccc([C@H](C)NC(C)=O)cc3)C2)c(OC)c1 (stereo partly drawn) [Example 1.38] | 2310
41 | C[C@H](NC(=O)C1CC1)c1ccc(OC2CN(c3ccc(OC4CC4)cc3)C2)cc1 [Example 1.39] | 350
42 | C[C@H](NC(=O)C1CC1)c1ccc(OC2CN(c3ccc(OCC4CC4)cc3)C2)cc1 [Example 1.40] | 1030
43 | C[C@H](NC(=O)C1CC1)c1ccc(OC2CN(c3ccc4c(c3)OCCO4)C2)cc1 [Example 1.41] | 1230
44 | CCCOc1cccc(N2CC(Oc3ccc([C@H](C)NC(=O)N(C)C)cc3)C2)c1 [Example 1.42] | 1050
45 | COc1cc(OC2CC2)ccc1N1CC(Oc2ccc([C@H](C)NC(C)=O)cc2)C1 [Example 1.43] | 1290

Row | Structure (SMILES) | IC50 [nM]
46 | CC(=O)N[C@@H](C)c1ccc(OC2CN(c3ccc(OC4CC4)cc3C)C2)cc1 [Example 1.44] | 250
47 | CC(=O)N[C@@H](C)c1ccc(OC2CN(c3c(F)cc(OC4CC4)cc3F)C2)cc1 [Example 1.45] | 130
48 | CC(=O)N[C@@H](C)c1ccc(OC2CN(c3ccc(OC4CCC4)cc3C#N)C2)cc1 [Example 1.46] | 170
49 | CC(=O)N[C@@H](C)c1ccc(OC2CN(c3ccc(OCC4CC4)cc3C#N)C2)cc1 [Example 1.47] | 400
50 | CCCOc1cccc(N2CC(Oc3ccc([C@H](C)NC(C)=O)cc3)C2)c1 [Example 1.48] | 1020
51 | CC(=O)N[C@@H](C)c1ccc(OC2CN(c3cccc(OCC(C)C)c3)C2)cc1 [Example 1.49] | 1130
52 | CCOc1ccc(N2CC(Oc3ccc([C@H](C)NC(C)=O)cc3)C2)nc1 [Example 1.51] | 270
53 | CCCOc1ccc(N2CC(Oc3ccc([C@H](C)NC(C)=O)cc3)C2)nc1 [Example 1.52] | 90
54 | CC(=O)N[C@@H](C)c1ccc(OC2CN(c3cc4c(cc3F)OCCCO4)C2)cc1 [Example 1.53] | 760
55 | CC(=O)N[C@@H](C)c1ccc(OC2CN(c3ccc(OCC4CC4(F)F)cc3F)C2)cc1 (stereo partly drawn) [Example 1.54] | 40
56 | CC(=O)N[C@@H](C)c1ccc(OC2CN(c3ccc(OC4CC4)cc3F)C2)cc1 [Example 1.55] | 110
57 | CC(=O)N[C@@H](C)c1ccc(OC2CN(c3cccc(C(F)(F)F)c3)C2)cc1 [Example 1.56] | 150
58 | CC(=O)N[C@@H](C)c1ccc(OC2CN(c3cc4c(cc3F)OCCO4)C2)cc1 [Example 1.57] | 740
59 | CCOc1ccc(N2CC(Oc3ccc([C@H](C)NC(C)=O)cc3)C2)c(C#N)n1 [Example 1.58] | 1390
60 | CCCOc1ccc(N2CC(Oc3ccc([C@H](C)NC(C)=O)cc3)C2)c(C#N)n1 [Example 1.59] | 300
61 | CC(=O)N[C@@H](C)c1ccc(OC2CN(c3ccc(OCC4CC4)nc3C#N)C2)cc1 [Example 1.60] | 650
62 | COc1cc(OCC2CC2(F)F)ccc1N1CC(Oc2ccc([C@H](C)NC(C)=O)cc2)C1 (stereo partly drawn) [Example 1.61] | 2540
63 | CCOc1cc(N2CC(Oc3ccc([C@H](C)NC(C)=O)cc3)C2)c(F)cn1 [Example 1.62] | 2910
64 | CC(=O)N[C@@H](C)c1ccc(OC2CN(c3ccc(OCC4CC4)cc3F)C2)cc1 [Example 2.2] | 60
65 | CCOc1ccc(N2CC(Oc3ccc([C@H](C)NC(C)=O)cc3)C2)c(F)c1 [Example 2.3] | 240
66 | CC(=O)N[C@@H](C)c1ccc(OC2CN(c3ccc(OC4CC4)cc3OC3CC3)C2)cc1 [Example 2.4] | 6140

— patent US8530460B2, “Azetidine derivatives” (Boehringer Ingelheim International GmbH, priority 2011, dated 2013)
